Laboratory results from PubChem BioAssay (NCI).
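In this assay, cells in 96-well plates receive the compound at five concentrations for 48 hours. Endpoints are linearly interpolated between the surrounding concentrations. The concentration for 50% growth inhibition is given as GI50. At the TGI there is no net growth.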

Tests used:
Test in all cases: DTP human tumour cell line panel, 48 h
RPMI-8226 leukemia = tested on: RPMI-8226 leukemia
K-562 leukemia = tested on: K-562 leukemia
UACC-62 melanoma = tested on: UACC-62 melanoma
HOP-62 NSCLC = tested on: HOP-62 NSCLC
HOP-92 NSCLC = tested on: HOP-92 NSCLC
PC-3 prostate = tested on: PC-3 prostate
COLO 205 colon = tested on: COLO 205 colon
EKVX NSCLC = tested on: EKVX NSCLC

How did the TGI (RPMI-8226 leukemia) turn out when `COc1ccc2c3c1OC1C4(CCC5C(C2)N(CC2CC2)CCC351)OCCO4` (centres undefined) was run?
Its TGI is > 100 µM.

What about the TGI (K-562 leukemia) of the same compound?
The TGI was > 100 µM.

And the TGI (UACC-62 melanoma)?
The TGI was > 100 µM.

What about the TGI (HOP-62 NSCLC) of the same compound?
The TGI was > 100 µM.

What about the TGI (HOP-92 NSCLC) of the same compound?
The TGI was > 100 µM.

And the TGI (PC-3 prostate)?
The TGI was > 100 µM.

What about the TGI (COLO 205 colon) of the same compound?
Its TGI is > 100 µM.

What about the TGI (EKVX NSCLC) of the same compound?
The TGI was > 100 µM.

With `O=C1c2ccccc2-c2c1c1ccc([N+](=O)[O-])cc1c(=O)n2CCN1CCOCC1` as the compound, how does the GI50 (RPMI-8226 leukemia) read?
Its GI50 is 35.7 µM.

And the TGI (RPMI-8226 leukemia)?
The TGI was > 100 µM.

And the GI50 (K-562 leukemia)?
The GI50 was > 100 µM.

What about the TGI (K-562 leukemia) of the same compound?
The TGI was > 100 µM.

And the GI50 (UACC-62 melanoma)?
Its GI50 is 82.7 µM.

And the TGI (UACC-62 melanoma)?
Its TGI is > 100 µM.

What about the GI50 (HOP-62 NSCLC) of the same compound?
Its GI50 is 52 µM.

And the TGI (HOP-62 NSCLC)?
The TGI was > 100 µM.

What about the GI50 (HOP-92 NSCLC) of the same compound?
Its GI50 is 26.2 µM.

What about the TGI (HOP-92 NSCLC) of the same compound?
Its TGI is > 100 µM.

What about the GI50 (PC-3 prostate) of the same compound?
The GI50 was > 100 µM.

And the TGI (PC-3 prostate)?
Its TGI is > 100 µM.

What about the GI50 (COLO 205 colon) of the same compound?
Its GI50 is > 100 µM.

And the TGI (COLO 205 colon)?
The TGI was > 100 µM.

What about the GI50 (EKVX NSCLC) of the same compound?
Its GI50 is > 100 µM.

What about the TGI (EKVX NSCLC) of the same compound?
The TGI was > 100 µM.

What does the source list for `COc1ccc2cn3c4ccc(O)cc4[nH]c(=O)c3c2c1`?
GI50 (RPMI-8226 leukemia): 0.308 µM; TGI (RPMI-8226 leukemia): 7.93 µM; GI50 (K-562 leukemia): 0.0516 µM; TGI (K-562 leukemia): 4.48 µM; GI50 (UACC-62 melanoma): 0.58 µM; TGI (UACC-62 melanoma): 18.1 µM; GI50 (HOP-62 NSCLC): 0.0864 µM; TGI (HOP-62 NSCLC): 17.3 µM; GI50 (HOP-92 NSCLC): 11.6 µM; TGI (HOP-92 NSCLC): 25.8 µM; GI50 (PC-3 prostate): 0.131 µM; TGI (PC-3 prostate): 16.9 µM; GI50 (COLO 205 colon): 0.348 µM; TGI (COLO 205 colon): 2.87 µM; GI50 (EKVX NSCLC): 0.778 µM; TGI (EKVX NSCLC): 20.7 µM

How did the TGI (RPMI-8226 leukemia) turn out when `Cn1c(=O)c2[nH]c(CCS)nc2n(C)c1=O` was run?
Its TGI is > 100 µM.

And the TGI (K-562 leukemia)?
Its TGI is > 100 µM.

What about the TGI (UACC-62 melanoma) of the same compound?
The TGI was > 100 µM.

And the TGI (HOP-62 NSCLC)?
Its TGI is > 100 µM.

What about the TGI (HOP-92 NSCLC) of the same compound?
The TGI was > 100 µM.

And the TGI (PC-3 prostate)?
The TGI was > 100 µM.

What about the TGI (COLO 205 colon) of the same compound?
The TGI was > 100 µM.

And the TGI (EKVX NSCLC)?
The TGI was > 100 µM.

`CCOc1cc(CCNC)c2c(ccc3ccc(OC)c(O)c32)c1OC` was tested. Which TGI (RPMI-8226 leukemia) did it give?
Its TGI is > 100 µM.

What about the TGI (K-562 leukemia) of the same compound?
Its TGI is > 100 µM.

And the TGI (UACC-62 melanoma)?
Its TGI is 31.1 µM.

And the TGI (HOP-62 NSCLC)?
The TGI was 37 µM.

And the TGI (HOP-92 NSCLC)?
The TGI was 25.2 µM.

What about the TGI (PC-3 prostate) of the same compound?
The TGI was 27.6 µM.

And the TGI (COLO 205 colon)?
The TGI was 42 µM.

And the TGI (EKVX NSCLC)?
Its TGI is 36.3 µM.

With `CN1CCC(n2cnc(-c3ccc(F)cc3)c2-c2ccnc(Nc3ccccc3)n2)CC1` as the compound, how does the GI50 (RPMI-8226 leukemia) read?
Its GI50 is > 20.8 µM.

And the TGI (RPMI-8226 leukemia)?
Its TGI is > 25 µM.

What about the GI50 (K-562 leukemia) of the same compound?
Its GI50 is 5.94 µM.

And the TGI (K-562 leukemia)?
Its TGI is > 25 µM.

And the GI50 (UACC-62 melanoma)?
Its GI50 is 6.54 µM.

And the TGI (UACC-62 melanoma)?
The TGI was > 23 µM.

What about the GI50 (HOP-62 NSCLC) of the same compound?
Its GI50 is 13.1 µM.

What about the TGI (HOP-62 NSCLC) of the same compound?
Its TGI is > 25 µM.

And the GI50 (HOP-92 NSCLC)?
Its GI50 is 5.18 µM.

What about the TGI (HOP-92 NSCLC) of the same compound?
The TGI was 24.6 µM.

And the GI50 (PC-3 prostate)?
The GI50 was 12.2 µM.

And the TGI (PC-3 prostate)?
The TGI was > 25 µM.

And the GI50 (COLO 205 colon)?
The GI50 was 3.34 µM.

And the TGI (COLO 205 colon)?
Its TGI is 7.19 µM.

And the GI50 (EKVX NSCLC)?
The GI50 was 3.75 µM.

And the TGI (EKVX NSCLC)?
The TGI was > 25 µM.

With `CCCCc1n(Cc2ccc3ccccc3n2)cc[n+]1Cc1ccc2ccccc2c1` as the compound, how does the GI50 (RPMI-8226 leukemia) read?
The GI50 was 0.265 µM.

What about the TGI (RPMI-8226 leukemia) of the same compound?
Its TGI is 1.36 µM.

And the GI50 (K-562 leukemia)?
Its GI50 is 0.359 µM.

What about the TGI (K-562 leukemia) of the same compound?
Its TGI is 2.36 µM.

And the GI50 (UACC-62 melanoma)?
Its GI50 is 0.579 µM.

And the TGI (UACC-62 melanoma)?
The TGI was 1.86 µM.

What about the GI50 (HOP-62 NSCLC) of the same compound?
Its GI50 is 1.72 µM.

And the TGI (HOP-62 NSCLC)?
The TGI was 5.25 µM.

What about the GI50 (HOP-92 NSCLC) of the same compound?
Its GI50 is 0.22 µM.

What about the TGI (HOP-92 NSCLC) of the same compound?
The TGI was 1.11 µM.

And the GI50 (PC-3 prostate)?
Its GI50 is 0.786 µM.

And the TGI (PC-3 prostate)?
Its TGI is 2.5 µM.

What about the GI50 (COLO 205 colon) of the same compound?
Its GI50 is 0.502 µM.

What about the TGI (COLO 205 colon) of the same compound?
Its TGI is 1.79 µM.

And the GI50 (EKVX NSCLC)?
Its GI50 is 1.4 µM.

What about the TGI (EKVX NSCLC) of the same compound?
The TGI was 11.8 µM.

`C=C(C)[C@@H]1CC[C@]2(COC(=O)c3ccccc3C(=O)O)CC[C@]3(C)[C@H](CC[C@@H]4[C@@]5(C)CC[C@H](OC(=O)c6ccccc6C(=O)O)C(C)(C)[C@@H]5CC[C@]43C)[C@@H]12` was tested. Which GI50 (RPMI-8226 leukemia) did it give?
Its GI50 is 14.8 µM.

And the TGI (RPMI-8226 leukemia)?
The TGI was > 100 µM.

What about the GI50 (K-562 leukemia) of the same compound?
Its GI50 is 31.7 µM.

And the TGI (K-562 leukemia)?
The TGI was > 100 µM.

What about the GI50 (UACC-62 melanoma) of the same compound?
The GI50 was 16.6 µM.

What about the TGI (UACC-62 melanoma) of the same compound?
Its TGI is > 100 µM.

What about the GI50 (HOP-62 NSCLC) of the same compound?
The GI50 was 21.8 µM.

What about the TGI (HOP-62 NSCLC) of the same compound?
The TGI was 54.2 µM.

And the GI50 (HOP-92 NSCLC)?
The GI50 was 19.6 µM.

And the TGI (HOP-92 NSCLC)?
Its TGI is 64.5 µM.

What about the GI50 (PC-3 prostate) of the same compound?
The GI50 was 34.6 µM.

And the TGI (PC-3 prostate)?
Its TGI is > 100 µM.

What about the GI50 (COLO 205 colon) of the same compound?
Its GI50 is > 100 µM.

And the TGI (COLO 205 colon)?
The TGI was > 100 µM.

What about the GI50 (EKVX NSCLC) of the same compound?
The GI50 was 37.4 µM.

What about the TGI (EKVX NSCLC) of the same compound?
The TGI was > 100 µM.
